Laboratory results published in ChEMBL document CHEMBL1158420, “Synthesis, spectral, crystal and antimicrobial studies of biologically potent oxime ethers of nitrogen, oxygen and sulfur heterocycles” (2009).
Values after ≈ are worked out from the molar mass of the structure shown.

Assays:
Aspergillus niger = assay: Antifungal activity against Aspergillus niger by twofold dilution method; format: functional
Aspergillus flavus = assay: Antifungal activity against Aspergillus flavus by twofold dilution method; format: functional
Candida albicans = assay: Antifungal activity against Candida albicans by twofold dilution method; format: functional
Escherichia coli = assay: Antibacterial activity against Escherichia coli by twofold dilution method; format: functional
Candida = assay: Antifungal activity against Candida 51 by twofold dilution method; format: functional
Staphylococcus aureus [1] = assay: Antibacterial activity against Staphylococcus aureus by twofold dilution method; format: functional
[2] = system: Salmonella enterica subsp. enterica; assay: Antibacterial activity against Salmonella typhi by twofold dilution method; format: functional, Salmonella enterica subsp. enterica serovar Typhi
Pseudomonas aeruginosa = assay: Antibacterial activity against Pseudomonas aeruginosa by twofold dilution method; format: functional
Cryptococcus neoformans = assay: Antifungal activity against Cryptococcus neoformans by twofold dilution method; format: functional
Rhizopus = assay: Antifungal activity against Rhizopus sp. by twofold dilution method; format: functional
[3] = system: Salmonella enterica subsp. enterica; assay: Ratio of MIC for drug to MIC for Ciprofloxacin against Salmonella typhi; format: functional, Salmonella enterica subsp. enterica serovar Typhi
Staphylococcus aureus [4] = assay: Ratio of MIC for drug to MIC for Ciprofloxacin against Staphylococcus aureus; format: functional
[5] = Aspergillus niger, read-out: MIC
[6] = Aspergillus flavus, read-out: MIC
[7] = Candida albicans, read-out: MIC
[8] = Escherichia coli, read-out: MIC
[9] = Staphylococcus aureus, read-out: MIC
[10] = Salmonella enterica, read-out: MIC
[11] = Pseudomonas aeruginosa, read-out: MIC
[12] = Cryptococcus neoformans, read-out: MIC

SMILES	MIC (Aspergillus niger; [5])	MIC (Aspergillus flavus; [6])	MIC (Candida albicans; [7])	MIC (Escherichia coli; [8])	MIC (Candida; Candida, 51, read-out: MIC)	MIC (Staphylococcus aureus [1]; [9])	MIC [2, 10]	MIC (Pseudomonas aeruginosa; [11])	MIC (Cryptococcus neoformans; [12])	MIC (Rhizopus; Rhizopus, read-out: MIC)	MIC (Candida albicans)	other results
COc1ccc(C2CC(=NOCc3ccccc3)CC(c3ccc(OC)cc3)N2)cc1 (centres undefined)	100 µg/mL (≈ 240 µM)	100 µg/mL (≈ 240 µM)	100 µg/mL (≈ 240 µM)	100 µg/mL (≈ 240 µM)	50 µg/mL (≈ 120 µM)	50 µg/mL (≈ 120 µM)	50 µg/mL (≈ 120 µM)	50 µg/mL (≈ 120 µM)	100 µg/mL (≈ 240 µM)	50 µg/mL (≈ 120 µM)	–	–
CC1/C(=N\OCc2ccccc2)CC(c2ccccc2)OC1c1ccccc1 (centres undefined)	200 µg/mL (≈ 538 µM)	200 µg/mL (≈ 538 µM)	100 µg/mL (≈ 269 µM)	100 µg/mL (≈ 269 µM)	100 µg/mL (≈ 269 µM)	100 µg/mL (≈ 269 µM)	200 µg/mL (≈ 538 µM)	100 µg/mL (≈ 269 µM)	100 µg/mL (≈ 269 µM)	200 µg/mL (≈ 538 µM)	–	–
Cc1ccc(C2CC(=NOCc3ccccc3)CC(c3ccc(C)cc3)N2)cc1 (centres undefined)	200 µg/mL (≈ 520 µM)	100 µg/mL (≈ 260 µM)	200 µg/mL (≈ 520 µM)	200 µg/mL (≈ 520 µM)	100 µg/mL (≈ 260 µM)	200 µg/mL (≈ 520 µM)	100 µg/mL (≈ 260 µM)	50 µg/mL (≈ 130 µM)	200 µg/mL (≈ 520 µM)	100 µg/mL (≈ 260 µM)	–	–
c1ccc(CO/N=C2\C[C@@H](c3ccccc3)S[C@@H](c3ccccc3)C2)cc1 (relative stereo)	100 µg/mL (≈ 268 µM)	> 200 µg/mL	> 200 µg/mL	200 µg/mL (≈ 535 µM)	200 µg/mL (≈ 535 µM)	> 200 µg/mL	100 µg/mL (≈ 268 µM)	200 µg/mL (≈ 535 µM)	> 200 µg/mL	200 µg/mL (≈ 535 µM)	–	–
Cc1ccc([C@@H]2CC(=NOCc3ccccc3)C[C@@H](c3ccc(C)cc3)S2)cc1 (relative stereo)	100 µg/mL (≈ 249 µM)	100 µg/mL (≈ 249 µM)	50 µg/mL (≈ 125 µM)	50 µg/mL (≈ 125 µM)	200 µg/mL (≈ 498 µM)	100 µg/mL (≈ 249 µM)	100 µg/mL (≈ 249 µM)	100 µg/mL (≈ 249 µM)	50 µg/mL (≈ 125 µM)	50 µg/mL (≈ 125 µM)	–	–
c1ccc(CON=C2C[C@@H](c3ccccc3)S[C@H](c3ccccc3)C2)cc1 (relative stereo)	200 µg/mL (≈ 535 µM)	100 µg/mL (≈ 268 µM)	200 µg/mL (≈ 535 µM)	200 µg/mL (≈ 535 µM)	> 200 µg/mL	> 200 µg/mL	200 µg/mL (≈ 535 µM)	> 200 µg/mL	200 µg/mL (≈ 535 µM)	> 200 µg/mL	–	–
CC1C(=NOCc2ccccc2)C(C)C(c2ccccc2)NC1c1ccccc1 (stereo in doubt; 5f1)	100 µg/mL (≈ 260 µM)	200 µg/mL (≈ 520 µM)	50 µg/mL (≈ 130 µM)	50 µg/mL (≈ 130 µM)	50 µg/mL (≈ 130 µM)	200 µg/mL (≈ 520 µM)	100 µg/mL (≈ 260 µM)	–	100 µg/mL (≈ 260 µM)	100 µg/mL (≈ 260 µM)	–	MIC (Pseudomonas aeruginosa): 50 µg/mL (≈ 130 µM)
CC1C(=NOCc2ccccc2)C(C)C(c2ccccc2)NC1c1ccccc1 (stereo in doubt; 5f2)	–	–	–	–	–	–	–	–	–	–	100 µg/mL (≈ 260 µM)	MIC (Aspergillus niger): 100 µg/mL (≈ 260 µM); MIC (Aspergillus flavus): >200 µg/mL; MIC (Escherichia coli): 100 µg/mL (≈ 260 µM); MIC (Candida): 100 µg/mL (≈ 260 µM); MIC (Staphylococcus aureus [1]): 100 µg/mL (≈ 260 µM); MIC [2]: 100 µg/mL (≈ 260 µM); MIC (Pseudomonas aeruginosa): 200 µg/mL (≈ 520 µM); MIC (Cryptococcus neoformans): 200 µg/mL (≈ 520 µM); MIC (Rhizopus): 50 µg/mL (≈ 130 µM)
CC1C(=NOCc2ccccc2)C(C)C(c2ccc(Cl)cc2)OC1c1ccc(Cl)cc1 (stereo in doubt; 7c1)	100 µg/mL (≈ 220 µM)	50 µg/mL (≈ 110 µM)	–	50 µg/mL (≈ 110 µM)	50 µg/mL (≈ 110 µM)	50 µg/mL (≈ 110 µM)	50 µg/mL (≈ 110 µM)	25 µg/mL (≈ 55 µM)	25 µg/mL (≈ 55 µM)	50 µg/mL (≈ 110 µM)	50 µg/mL (≈ 110 µM)	–
CC1C(=NOCc2ccccc2)C(C)C(c2ccc(Cl)cc2)OC1c1ccc(Cl)cc1 (stereo in doubt; 7c2)	–	–	–	–	–	–	–	–	–	–	12.5 µg/mL (≈ 27.5 µM)	MIC (Aspergillus niger): 50 µg/mL (≈ 110 µM); MIC (Aspergillus flavus): 25 µg/mL (≈ 55 µM); MIC (Escherichia coli): 50 µg/mL (≈ 110 µM); MIC (Candida): 25 µg/mL (≈ 55 µM); MIC (Staphylococcus aureus [1]): 50 µg/mL (≈ 110 µM); MIC [2]: 100 µg/mL (≈ 220 µM); MIC (Pseudomonas aeruginosa): 50 µg/mL (≈ 110 µM); MIC (Cryptococcus neoformans): 12.5 µg/mL (≈ 27.5 µM); MIC (Rhizopus): 25 µg/mL (≈ 55 µM)
Cc1ccc(C2OC(c3ccc(C)cc3)C(C)C(=NOCc3ccccc3)C2C)cc1 (stereo in doubt; 7d1)	50 µg/mL (≈ 121 µM)	50 µg/mL (≈ 121 µM)	–	25 µg/mL (≈ 60.5 µM)	–	12.5 µg/mL (≈ 30.2 µM)	25 µg/mL (≈ 60.5 µM)	12.5 µg/mL (≈ 30.2 µM)	50 µg/mL (≈ 121 µM)	50 µg/mL (≈ 121 µM)	25 µg/mL (≈ 60.5 µM)	MIC (Candida): 50 µg/mL (≈ 121 µM); Ratio [3]: 2; Ratio (Staphylococcus aureus [4]): 2
Cc1ccc(C2OC(c3ccc(C)cc3)C(C)C(=NOCc3ccccc3)C2C)cc1 (stereo in doubt; 7d2)	–	–	–	–	–	–	–	–	–	–	6.25 µg/mL (≈ 15.1 µM)	MIC (Aspergillus niger): 50 µg/mL (≈ 121 µM); MIC (Aspergillus flavus): 25 µg/mL (≈ 60.5 µM); MIC (Escherichia coli): 50 µg/mL (≈ 121 µM); MIC (Candida): 6.25 µg/mL (≈ 15.1 µM); MIC (Staphylococcus aureus [1]): 25 µg/mL (≈ 60.5 µM); MIC (Pseudomonas aeruginosa): 25 µg/mL (≈ 60.5 µM); MIC (Cryptococcus neoformans): 25 µg/mL (≈ 60.5 µM); MIC (Rhizopus): 25 µg/mL (≈ 60.5 µM)
C[C@@H]1[C@H](O)[C@@H](C)/C=C/C=C/C=C/C=C/C=C/C=C/C=C/[C@H](O[C@@H]2O[C@H](C)[C@@H](O)[C@H](N)[C@@H]2O)C[C@@H]2O[C@](O)(C[C@@H](O)C[C@@H](O)[C@H](O)CC[C@@H](O)C[C@@H](O)CC(=O)O[C@H]1C)C[C@H](O)[C@H]2C(=O)O [AMPHOTERICIN B]	50 µg/mL (≈ 54.1 µM)	50 µg/mL (≈ 54.1 µM)	25 µg/mL (≈ 27.1 µM)	–	25 µg/mL (≈ 27.1 µM)	–	–	–	25 µg/mL (≈ 27.1 µM)	25 µg/mL (≈ 27.1 µM)	–	–
O=C(O)c1cn(C2CC2)c2cc(N3CCNCC3)c(F)cc2c1=O [CIPROFLOXACIN]	–	–	–	25 µg/mL (≈ 75.4 µM)	–	–	50 µg/mL (≈ 151 µM)	–	–	–	–	–
